Assay: Adverse events and DLT, MRZ with TMZ and RT in newly diagnosed WHO Grade IV malignant glioma
Format: in vivo, human
Description: The clinical trial was a dose-escalation study (Stage 1, MRZ+TMZ+RT or MRZ+TMZ) consisting of two arms—concomitant and adjuvant—in each, MRZ added to standard of care at increasing IV doses in a 3+3 design, and a dose expansion study at RP2D (Stage 2, RP2D MRZ+TMZ+RT followed by RP2D MRZ+TMZ) first with concomitant and then with adjuvant standard of care.
In the experimental Stage 1 Concomitant Treatment (MRZ+TMZ+RT) Drug MRZ dose ranges from 0.55 mg/m^2 to 1.0 mg/m^2 given IV over 10 minutes on days 1, 8, 15, 29, and 36 during concomitant treatment. MRZ dose ranges from 0.55 to 1.0 mg/m^2 given IV over 10 minutes on Days 1, 8, 15 every 28 days during adjuvant treatment. TMZ will be administered once daily, 7 days/week, for 6 weeks, starting on Day 1, at a dose of 75 mg/m^2 during concomitant treatment. TMZ will be administered once daily on days 1-5 every cycle (28 day cycles, up to 12 cycles), dose range 150 to 200 mg/m^2 during adjuvant treatment. Radiation (RT) will be administered once daily 5 days/week, for 30 doses over 6 weeks to a total dose of 60 Gy, staring on Day 1 during concomitant treatment. Patients who complete concomitant treatment may continue on to adjuvant treatment, in the adjuvant cohort RT and TMZ treatment is received outside of protocol therapy.
In the experimental Stage 2 dose expansion 18 additional evaluable patients were enrolled in a cohort in which concomitant treatment (MRZ+TMZ+RT) is followed by adjuvant treatment (MRZ+TMZ) to confirm the MTD for each treatment regime as determined in the dose-escalation (Stage 1), and to assess preliminary activity of the recommended Phase 2 dose (RP2D, 0.8 mg/m^2). Table 44 and Table 45 give the treatment parameters of the present study and demographics of study participants.
Methods: Patients enrolled in separate concomitant (TMZ+RT+MRZ at 0.55, 0.7, 0.8, and 1.0 mg/m^2 dose levels DL) and adjuvant (TMZ+MRZ) cohorts in 3+3 design, followed by dose-expansion at the RD (concomitant followed by adjuvant). MRZ (10 min IV infusion): Concomitant (42 days (D), on D1, 8, 15, 29, 36; Adjuvant (28D-cycle) on D1, 8, 15.
Outcome Measures: Primary Outcome Measures: (1) Determine MRZ maximum tolerated dose (MTD) and recommended phase 2 dose (RP2D) for both concomitant treatment (MRZ+TMZ+RT) and adjuvant treatment (MRZ+TMZ). Time Frame: 42-day concomitant treatment and 28-day Cycle 1 adjuvant treatment. Description: Assess dose-limiting toxicities (DLTs) in each dose-escalation arm.
Methods: Patients enrolled in separate concomitant (TMZ/RT+MRZ) and adjuvant (TMZ+MRZ) treatment cohorts in dose-escalation (3+3 design, MRZ at 0.55, 0.7, 0.8, and 1.0 mg/m^2), followed by dose-expansion at the RD in concomitant followed by adjuvant treatment. MRZ (10 min IV infusion): Concomitant Day 1, 8, 15, 29, 36; Adjuvant (28D-cycle) Day 1, 8, 15.

[1] = Cohorts 1-3 0.55, 0.7, 0.8 mg/m^2 (21)
[2] = all grades, Cohort 2 0.7 mg/m^2 (9), concomitant and adjuvant combined
[3] = all grades, Cohort 3 0.8 mg/m^2 (6), concomitant and adjuvant combined
[4] = all grades, Cohort 4 1.0 mg/m^2 (12), concomitant and adjuvant combined
[5] = all grades, all dose-escalation cohorts 0.55-1.0 mg/m^2, N = 33, concomitant and adjuvant combined

C[C@@]12OC(=O)[C@]1([C@@H](O)[C@@H]1C=CCCC1)NC(=O)[C@@H]2CCCl [MRZ, marizomib]
Most common TEAEs (≥20% patients) (33 patients, dose-escalation): fatigue, nausea, vomiting, hallucination, ataxia, headache | Anorexia, Total # Patients with Grade 3 Event: 0 | Ataxia, Total # Patients with Grade 3 Event: 3 | Confusion, Total # Patients with Grade 3 Event: 2 | Constipation, Total # Patients with Grade 3 Event: 0 | Diarrhea, Total # Patients with Grade 3 Event: 0 | Dizziness, Total # Patients with Grade 3 Event: 0 | Fatigue, Total # Patients with Grade 3 Event: 2 | Hallucination, Total # Patients with Grade 3 Event: 0 | Headache, Total # Patients with Grade 3 Event: 2 | Nausea, Total # Patients with Grade 3 Event: 0 | Vomiting, Total # Patients with Grade 3 Event: 0 | Anorexia, Total # Patients with Grade 3 Event [1]: 0 | Ataxia, Total # Patients with Grade 3 Event [1]: 1 | Confusion, Total # Patients with Grade 3 Event [1]: 0 | Constipation, Total # Patients with Grade 3 Event [1]: 0 | Diarrhea, Total # Patients with Grade 3 Event [1]: 0 | Dizziness, Total # Patients with Grade 3 Event [1]: 0 | Fatigue, Total # Patients with Grade 3 Event [1]: 5 | Hallucination, Total # Patients with Grade 3 Event [1]: 1 | Headache, Total # Patients with Grade 3 Event [1]: 0 | Nausea, Total # Patients with Grade 3 Event [1]: 0 | Vomiting, Total # Patients with Grade 3 Event [1]: 1 | patients with at least one Grade ≥3 TEAE (MRZ 0.7 mg/m^2, of 9 (Example 6)): 2 | patients with Grade 3 TEAEs (MRZ 0.7 mg/m^2, of 9, as of Feb. 1, 2018): 4 | patients with at least one Grade ≥3 TEAE (MRZ 0.8 mg/m^2, of 6 (Example 6)): 1 | patients with Grade 3 TEAEs (MRZ 0.8 mg/m^2, of 6, as of Feb. 1, 2018): 2 | patients with DLTs (MRZ 1.0 mg/m^2, concomitant and adjuvant): 5/12 | patients with at least one Grade ≥3 TEAE (MRZ 1.0 mg/m^2, of 12): 11 | tolerability (MRZ with SOC in ndGBM): well tolerated | Anorexia, incidence of treatment-related adverse event [2]: 3 | Ataxia, incidence of treatment-related adverse event [2]: 1 | Confusion, incidence of treatment-related adverse event [2]: 4 | Constipation, incidence of treatment-related adverse event [2]: 6 | Diarrhea, incidence of treatment-related adverse event [2]: 2 | Dizziness, incidence of treatment-related adverse event [2]: 2 | Fatigue, incidence of treatment-related adverse event [2]: 8 | Hallucination, incidence of treatment-related adverse event [2]: 4 | Headache, incidence of treatment-related adverse event [2]: 3 | Nausea, incidence of treatment-related adverse event [2]: 4 | Vomiting, incidence of treatment-related adverse event [2]: 4 | Anorexia, incidence of treatment-related adverse event [3]: 2 | Ataxia, incidence of treatment-related adverse event [3]: 1 | Confusion, incidence of treatment-related adverse event [3]: 1 | Constipation, incidence of treatment-related adverse event [3]: 2 | Diarrhea, incidence of treatment-related adverse event [3]: 2 | Dizziness, incidence of treatment-related adverse event [3]: 1 | Fatigue, incidence of treatment-related adverse event [3]: 5 | Hallucination, incidence of treatment-related adverse event [3]: 2 | Headache, incidence of treatment-related adverse event [3]: 2 | Nausea, incidence of treatment-related adverse event [3]: 5 | Vomiting, incidence of treatment-related adverse event [3]: 4 | Anorexia, incidence of treatment-related adverse event [4]: 1 | Ataxia, incidence of treatment-related adverse event [4]: 4 | Confusion, incidence of treatment-related adverse event [4]: 3 | Constipation, incidence of treatment-related adverse event [4]: 4 | Diarrhea, incidence of treatment-related adverse event [4]: 1 | Dizziness, incidence of treatment-related adverse event [4]: 1 | Fatigue, incidence of treatment-related adverse event [4]: 8 | Hallucination, incidence of treatment-related adverse event [4]: 4 | Headache, incidence of treatment-related adverse event [4]: 4 | Nausea, incidence of treatment-related adverse event [4]: 5 | Vomiting, incidence of treatment-related adverse event [4]: 4 | Anorexia, treatment-related adverse event, total in parentheses [5]: Anorexia (8) | Ataxia, treatment-related adverse event, total in parentheses [5]: Ataxia (8) | Confusion, treatment-related adverse event, total in parentheses [5]: Confusion (9) | Constipation, treatment-related adverse event, total in parentheses [5]: Constipation (11) | Diarrhea, treatment-related adverse event, total in parentheses [5]: Diarrhea (7) | Dizziness, treatment-related adverse event, total in parentheses [5]: Dizziness (6) | Fatigue, treatment-related adverse event, total in parentheses [5]: Fatigue (26) | Hallucination, treatment-related adverse event, total in parentheses [5]: Hallucination (11) | Headache, treatment-related adverse event, total in parentheses [5]: Headache (10) | Nausea, treatment-related adverse event, total in parentheses [5]: Nausea (17) | Vomiting, treatment-related adverse event, total in parentheses [5]: Vomiting (12) | RP2D / recommended dose (RD) of MRZ (with TMZ and RT (SOC), ndGBM): 0.8 mg/m^2

Source: patent US20200085789A1, “USE OF A PROTEASOME INHIBITOR FOR THE TREATMENT OF CENTRAL NERVOUS SYSTEM (CNS) CANCERS” (Celgene International II Sàrl, priority 2017, published 2020)
